Measurements from patent publication US12077503B2, “Substituted cyclic amides and their use as herbicides” (FMC CORPORATION, priority 2015, dated 2024).

Tests used:
Assay type in all cases: in vivo
corn (Zea mays) [1] = test: Test G Pre-Emergence Protocol; conditions: Zea mays, pre-emergence, 312 h, evaluated after 13 days; for plant injury at 15.625 g/ha: 15.625 g ai/ha; for plant injury at 15.625 g/ha / plant injury at 250 g/ha: read-out: Corn damage rating (100=total damage to plant; 0=no damage to plant); for plant injury at 62.5 g/ha: 62.5 g ai/ha, 100=total damage to plant, 0=no damage to plant, read-out: Corn damage rating; for plant injury at 250 g/ha: 250 g ai/ha
Method in brief: (§1)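 One day after sowing, pots are treated with a spray of test compound formulated in acetone/water 50:50 plus 0.5% Tween 20, giving 15.625, 62.5 or 250 g/ha. Evaluation on a 0–100 damage scale follows 13 days of glasshouse growth.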

[2] = system: velvetleaf (Abutilon theophrasti); test: Test G Pre-Emergence Protocol; conditions: Abutilon theophrasti, pre-emergence, 312 h, evaluated after 13 days; for pest or weed control at 15.625 g/ha: 15.625 g ai/ha; for pest or weed control at 15.625 g/ha / pest or weed control at 250 g/ha: read-out: Velvetleaf damage rating (100=total damage to plant; 0=no damage to plant); for pest or weed control at 62.5 g/ha: 62.5 g ai/ha, 100=total damage to plant, 0=no damage to plant, read-out: Velvetleaf damage rating; for pest or weed control at 250 g/ha: 250 g ai/ha
Method in brief: as §1

[3] = system: barnyardgrass (Echinochloa crus-galli); test: Test G Pre-Emergence Protocol; conditions: Echinochloa crus-galli, pre-emergence, 312 h, evaluated after 13 days; for pest or weed control at 15.625 g/ha: 15.625 g ai/ha; for pest or weed control at 15.625 g/ha / pest or weed control at 250 g/ha: read-out: Barnyardgrass damage rating (100=total damage to plant; 0=no damage to plant); for pest or weed control at 62.5 g/ha: 62.5 g ai/ha, 100=total damage to plant, 0=no damage to plant, read-out: Barnyardgrass damage rating; for pest or weed control at 250 g/ha: 250 g ai/ha
Method in brief: as §1

[4] = system: ivy-leaved morning glory (Ipomoea hederacea); test: Test G Pre-Emergence Protocol; conditions: Ipomoea, pre-emergence, 312 h, evaluated after 13 days; for pest or weed control at 15.625 g/ha: 15.625 g ai/ha; for pest or weed control at 15.625 g/ha / pest or weed control at 250 g/ha: read-out: Morningglory, Ivy-leaved damage rating (100=total damage to plant; 0=no damage to plant); for pest or weed control at 62.5 g/ha: 62.5 g ai/ha, 100=total damage to plant, 0=no damage to plant, read-out: Morningglory, Ivy-leaved damage rating; for pest or weed control at 250 g/ha: 250 g ai/ha
Method in brief: as §1

[5] = system: redroot pigweed (Amaranthus retroflexus); test: Test G Pre-Emergence Protocol; conditions: Amaranthus retroflexus, pre-emergence, 312 h, evaluated after 13 days; for pest or weed control at 15.625 g/ha: 15.625 g ai/ha; for pest or weed control at 15.625 g/ha / pest or weed control at 250 g/ha: read-out: Pigweed, Redroot damage rating (100=total damage to plant; 0=no damage to plant); for pest or weed control at 62.5 g/ha: 62.5 g ai/ha, 100=total damage to plant, 0=no damage to plant, read-out: Pigweed, Redroot damage rating; for pest or weed control at 250 g/ha: 250 g ai/ha
Method in brief: as §1

[6] = system: giant foxtail (Setaria faberi); test: Test G Pre-Emergence Protocol; conditions: Setaria faberi, pre-emergence, 312 h, evaluated after 13 days; for pest or weed control at 15.625 g/ha: 15.625 g ai/ha; for pest or weed control at 15.625 g/ha / pest or weed control at 250 g/ha: read-out: Foxtail, Giant damage rating (100=total damage to plant; 0=no damage to plant); for pest or weed control at 62.5 g/ha: 62.5 g ai/ha, 100=total damage to plant, 0=no damage to plant, read-out: Foxtail, Giant damage rating; for pest or weed control at 250 g/ha: 250 g ai/ha
Method in brief: as §1

corn (Zea mays) [7] = test: Test G Post-Emergence Protocol; conditions: Zea mays, post-emergence, 312 h, read-out: Corn damage rating; for plant injury at 15.625 g/ha: 15.625 g ai/ha, evaluated after 13 days (100=total damage to plant; 0=no damage to plant); for plant injury at 62.5 g/ha: 62.5 g ai/ha; for plant injury at 62.5 g/ha / plant injury at 250 g/ha: evaluated after 13 days, 100=total damage to plant, 0=no damage to plant; for plant injury at 250 g/ha: 250 g ai/ha
Method in brief: (§2)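 Sow in soil; grow 8 d (24/16 °C, 14 h light, 65% humidity); spray 15.625/62.5/250 g/ha in acetone:water 50:50 + 0.5% Tween 20; grow on, water twice daily; score damage 0–100 at 13 d.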

[8] = system: velvetleaf (Abutilon theophrasti); test: Test G Post-Emergence Protocol; conditions: Abutilon theophrasti, post-emergence, 312 h, read-out: Velvetleaf damage rating; for pest or weed control at 15.625 g/ha: 15.625 g ai/ha, evaluated after 13 days (100=total damage to plant; 0=no damage to plant); for pest or weed control at 62.5 g/ha: 62.5 g ai/ha; for pest or weed control at 62.5 g/ha / pest or weed control at 250 g/ha: evaluated after 13 days, 100=total damage to plant, 0=no damage to plant; for pest or weed control at 250 g/ha: 250 g ai/ha
Method in brief: as §2

[9] = system: barnyardgrass (Echinochloa crus-galli); test: Test G Post-Emergence Protocol; conditions: Echinochloa crus-galli, post-emergence, 312 h, read-out: Barnyardgrass damage rating; for pest or weed control at 15.625 g/ha: 15.625 g ai/ha, evaluated after 13 days (100=total damage to plant; 0=no damage to plant); for pest or weed control at 62.5 g/ha: 62.5 g ai/ha; for pest or weed control at 62.5 g/ha / pest or weed control at 250 g/ha: evaluated after 13 days, 100=total damage to plant, 0=no damage to plant; for pest or weed control at 250 g/ha: 250 g ai/ha
Method in brief: as §2

[10] = system: ivy-leaved morning glory (Ipomoea hederacea); test: Test G Post-Emergence Protocol; conditions: Ipomoea, post-emergence, 312 h, read-out: Morningglory, Ivy-leaved damage rating; for pest or weed control at 15.625 g/ha: 15.625 g ai/ha, evaluated after 13 days (100=total damage to plant; 0=no damage to plant); for pest or weed control at 62.5 g/ha: 62.5 g ai/ha; for pest or weed control at 62.5 g/ha / pest or weed control at 250 g/ha: evaluated after 13 days, 100=total damage to plant, 0=no damage to plant; for pest or weed control at 250 g/ha: 250 g ai/ha
Method in brief: as §2

[11] = system: redroot pigweed (Amaranthus retroflexus); test: Test G Post-Emergence Protocol; conditions: Amaranthus retroflexus, post-emergence, 312 h, read-out: Pigweed, Redroot damage rating; for pest or weed control at 15.625 g/ha: 15.625 g ai/ha, evaluated after 13 days (100=total damage to plant; 0=no damage to plant); for pest or weed control at 62.5 g/ha: 62.5 g ai/ha; for pest or weed control at 62.5 g/ha / pest or weed control at 250 g/ha: evaluated after 13 days, 100=total damage to plant, 0=no damage to plant; for pest or weed control at 250 g/ha: 250 g ai/ha
Method in brief: as §2

[12] = system: giant foxtail (Setaria faberi); test: Test G Post-Emergence Protocol; conditions: Setaria faberi, post-emergence, 312 h, read-out: Foxtail, Giant damage rating; for pest or weed control at 15.625 g/ha: 15.625 g ai/ha, evaluated after 13 days (100=total damage to plant; 0=no damage to plant); for pest or weed control at 62.5 g/ha: 62.5 g ai/ha; for pest or weed control at 62.5 g/ha / pest or weed control at 250 g/ha: evaluated after 13 days, 100=total damage to plant, 0=no damage to plant; for pest or weed control at 250 g/ha: 250 g ai/ha
Method in brief: as §2

Row | SMILES | plant injury at 15.625 g/ha (corn (Zea mays) [1]) [%] | plant injury at 62.5 g/ha (corn (Zea mays) [1]) [%] | plant injury at 250 g/ha (corn (Zea mays) [1]) [%] | pest or weed control at 15.625 g/ha [2] [%] | pest or weed control at 62.5 g/ha [2] [%] | pest or weed control at 250 g/ha [2] [%] | pest or weed control at 15.625 g/ha [3] [%] | pest or weed control at 62.5 g/ha [3] [%] | pest or weed control at 250 g/ha [3] [%] | pest or weed control at 15.625 g/ha [4] [%] | pest or weed control at 62.5 g/ha [4] [%] | pest or weed control at 15.625 g/ha [5] [%] | pest or weed control at 62.5 g/ha [5] [%] | pest or weed control at 250 g/ha [5] [%] | pest or weed control at 15.625 g/ha [6] [%] | pest or weed control at 62.5 g/ha [6] [%] | pest or weed control at 250 g/ha [6] [%] | plant injury at 15.625 g/ha (corn (Zea mays) [7]) [%] | plant injury at 62.5 g/ha (corn (Zea mays) [7]) [%] | plant injury at 250 g/ha (corn (Zea mays) [7]) [%] | further results
1 | CN1C[C@@H](c2ccc(C(F)(F)F)cc2)[C@H](C(=O)Nc2cnc(Cl)cn2)C1=O (racemic) [Compound 1649] | 0 | 0 | 0 | 0 | 0 | 0 | 0 | 0 | 0 | 0 | 0 | 0 | 20 | 20 | 0 | 10 | 20 | 0 | 0 | 0 | pest or weed control at 250 g/ha [4]: 0%; pest or weed control at 15.625 g/ha [8]: 0%; pest or weed control at 62.5 g/ha [8]: 0%; pest or weed control at 250 g/ha [8]: 0%; pest or weed control at 15.625 g/ha [9]: 0%; pest or weed control at 62.5 g/ha [9]: 0%; pest or weed control at 250 g/ha [9]: 20%; pest or weed control at 15.625 g/ha [10]: 0%; pest or weed control at 62.5 g/ha [10]: 0%; pest or weed control at 250 g/ha [10]: 0%; pest or weed control at 15.625 g/ha [11]: 0%; pest or weed control at 62.5 g/ha [11]: 0%; pest or weed control at 250 g/ha [11]: 40%; pest or weed control at 15.625 g/ha [12]: 0%; pest or weed control at 62.5 g/ha [12]: 0%; pest or weed control at 250 g/ha [12]: 60%
2 | Cc1c(F)ccc(NC(=O)[C@@H]2C(=O)N(C)C[C@H]2c2ccc(C(F)(F)F)cc2)c1Cl (racemic) [Compound 1651] | 0 | 0 | 0 | 0 | 0 | 10 | 0 | 0 | 20 | 0 | 0 | 0 | 10 | 20 | 0 | 20 | 80 | 0 | 0 | 0 | pest or weed control at 250 g/ha [4]: 0%; pest or weed control at 15.625 g/ha [8]: 0%; pest or weed control at 62.5 g/ha [8]: 0%; pest or weed control at 250 g/ha [8]: 10%; pest or weed control at 15.625 g/ha [9]: 0%; pest or weed control at 62.5 g/ha [9]: 30%; pest or weed control at 250 g/ha [9]: 10%; pest or weed control at 15.625 g/ha [10]: 0%; pest or weed control at 62.5 g/ha [10]: 10%; pest or weed control at 250 g/ha [10]: 10%; pest or weed control at 15.625 g/ha [11]: 0%; pest or weed control at 62.5 g/ha [11]: 0%; pest or weed control at 250 g/ha [11]: 0%; pest or weed control at 15.625 g/ha [12]: 0%; pest or weed control at 62.5 g/ha [12]: 70%; pest or weed control at 250 g/ha [12]: 90%
3 | Cc1nc(F)ccc1NC(=O)[C@@H]1C(=O)N(C)C[C@H]1c1ccc(C(F)(F)F)cc1 (racemic) [Compound 1654] | 0 | 0 | 20 | 0 | 0 | 10 | 0 | 0 | 80 | 0 | 0 | 0 | 0 | 0 | 20 | 60 | 90 | 0 | 0 | 20 | pest or weed control at 15.625 g/ha [8]: 0%; pest or weed control at 62.5 g/ha [8]: 20%; pest or weed control at 250 g/ha [8]: 40%; pest or weed control at 15.625 g/ha [9]: 0%; pest or weed control at 62.5 g/ha [9]: 20%; pest or weed control at 250 g/ha [9]: 60%; pest or weed control at 15.625 g/ha [10]: 10%; pest or weed control at 62.5 g/ha [10]: 20%; pest or weed control at 250 g/ha [10]: 30%; pest or weed control at 15.625 g/ha [11]: 10%; pest or weed control at 62.5 g/ha [11]: 20%; pest or weed control at 250 g/ha [11]: 30%; pest or weed control at 15.625 g/ha [12]: 20%; pest or weed control at 62.5 g/ha [12]: 40%; pest or weed control at 250 g/ha [12]: 80%
